Patent publication US8765721B2, “Composition comprising phosphatidyl serine and an antigen or allergen and the use thereof” (Vaccine Technology Limited, priority 2004, dated 2014)

Key:
Format in all cases: in vivo, rat
[1] = system: IgE; assay: Ovalbumin-specific IgE ELISA of serum of immunised rats; conditions: pooled group serum
Description: (§1) Rats were injected with vaccine compositions comprising the ovalbumin antigen with and without di-oleoyl phosphatidyl serine, lyso-oleoyl phosphatidyl serine or stearoyl(X1)-arachidonoyl(X2) phosphatidyl serine and the concentrations of IgE, IgA and IgG are compared.
(§2) The animals were acclimatised for a period of 5 days prior to dosing. During the acclimatisation period animals were observed twice daily during the working week and once on each day during the weekend to evaluate the health status of the animals. Rats were then allocated to the following dose groups using computer-generated random order numbers.
(§3) On day 0, 20 μg of ovalbumin (OA) in phosphate buffered saline (PBS) with alhydrogel (AHG) adjuvant in a final volume of 0.5 mL was administered.
(§4) On days 21 and 42, 20 μg of ovalbumin (OA) in phosphate buffered saline (PBS) with the relevant test compound in a final volume of 0.5 ml was administered.
(§5) In each case, 0.5 mL of inoculum was injected subcutaneously into the scruff of the neck.
(§6) […] A blood sample was also taken from each animal on Days 15, 22, 29, 36, 43, 50, 57 and 64.
(§7) Serum was prepared by centrifugation of the blood sample at 2,500 rpm for 10 minutes and frozen at −20° C. The samples were then analysed by ELISA to establish the concentration of IgE, IgA and IgG1, IgG2a and IgG2b.
(§8) The purpose of an ELISA is to determine whether a particular protein is present in a sample and then enables quantification of how much is present. By coating the bottom of wells with ovalbumin (OVA) it is possible to bind anti-OVA specific antibodies. To detect only anti-OVA IgA antibodies anti-rat IgA conjugated to HRP was used as a secondary antibody. Quantification of specific antibodies in the rat sera samples was performed using antibody titrations. The data was reported as endpoint titers. Endpoint titers are defined as the last serum dilution giving an optical density value equal to twice the background optical density for the ELISA plate (buffer).

[2] = system: IgA; assay: Ovalbumin-specific IgA ELISA of serum of immunised rats; conditions: pooled group serum
Description: as §1, §2, §3, §4, §5
On Day 0 a pre-inoculation blood sample was taken. A blood sample was also taken from each animal on Days 15, 22, 29, 36, 43, 50, 57 and 64.
as §7, §8

[3] = system: IgG1; assay: Ovalbumin-specific IgG1 ELISA of serum of immunised rats; conditions: pooled group serum
Description: as §1, §2, §3, §4
(§9) In each case, 0.5 mL of inoculum was injected subcutaneously into the scruff of the neck. […]
as §7
as §8, with “To detect only anti-OVA IgA antibodies anti-rat IgA conjugated to HRP was used as a secondary antibody.” left out

[4] = system: IgG2a; assay: Ovalbumin-specific IgG2a ELISA of serum of immunised rats; conditions: pooled group serum
Description: as §1, §2, §3, §4, §9, §7, §8

[5] = system: IgG2b; assay: Ovalbumin-specific IgG2b ELISA of serum of immunised rats; conditions: pooled group serum
Description: as §1, §2, §3, §4, §5, §6, §7, §8

[6] = system: IgE; assay: Ovalbumin-specific IgE ELISA of serum of immunised rats; conditions: Day 1; 250 ug with 20 μg Ova s.c. on days 21 and 42; pooled group serum
[7] = system: IgA; assay: Ovalbumin-specific IgA ELISA of serum of immunised rats; conditions: Day 1; 50 ug with 20 μg Ova s.c. on days 21 and 42; pooled group serum
[8] = Day 1, 50 ug with 20 μg Ova s.c. on days 21 and 42
[9] = Day 15, 50 ug with 20 μg Ova s.c. on days 21 and 42
[10] = Day 15, 250 ug with 20 μg Ova s.c. on days 21 and 42
[11] = Day 22, 50 ug with 20 μg Ova s.c. on days 21 and 42
[12] = Day 22, 250 ug with 20 μg Ova s.c. on days 21 and 42
[13] = Day 29, 50 ug with 20 μg Ova s.c. on days 21 and 42
[14] = Day 29, 250 ug with 20 μg Ova s.c. on days 21 and 42
[15] = Day 36, 50 ug with 20 μg Ova s.c. on days 21 and 42
[16] = Day 36, 250 ug with 20 μg Ova s.c. on days 21 and 42
[17] = Day 43, 50 ug with 20 μg Ova s.c. on days 21 and 42
[18] = Day 43, 250 ug with 20 μg Ova s.c. on days 21 and 42
[19] = Day 50, 50 ug with 20 μg Ova s.c. on days 21 and 42
[20] = Day 50, 250 ug with 20 μg Ova s.c. on days 21 and 42
[21] = Day 57, 50 ug with 20 μg Ova s.c. on days 21 and 42
[22] = Day 57, 250 ug with 20 μg Ova s.c. on days 21 and 42
[23] = Day 64, 50 ug with 20 μg Ova s.c. on days 21 and 42
[24] = Day 64, 250 ug with 20 μg Ova s.c. on days 21 and 42
[25] = Day 1, 250 ug with 20 μg Ova s.c. on days 21 and 42

## CCCCC/C=C\C/C=C\C/C=C\C/C=C\CCCC(=O)O[C@H](COC(=O)CCCCCCCCCCCCCCCCC)COP(=O)(O)OC[C@H](N)C(=O)O [VT003, Stearoyl arachadonoyl phosphatidyl serine]
[1]; [8]
  IgE endpoint titer: 0
[1]; [9]
  IgE endpoint titer: 0
[1]; [10]
  IgE endpoint titer: 0
[1]; [11]
  IgE endpoint titer: 0
[1]; [12]
  IgE endpoint titer: 0
[1]; [13]
  IgE endpoint titer: 0
[1]; [14]
  IgE endpoint titer: 0
[1]; [15]
  IgE endpoint titer: 0
[1]; [16]
  IgE endpoint titer: 0
[1]; [17]
  IgE endpoint titer: 0
[1]; [18]
  IgE endpoint titer: 0
[1]; [19]
  IgE endpoint titer: 320
[1]; [20]
  IgE endpoint titer: 80
[1]; [21]
  IgE endpoint titer: 80
[1]; [22]
  IgE endpoint titer: 40
[1]; [23]
  IgE endpoint titer: 40
[1]; [24]
  IgE endpoint titer: 20
[2]; [25]
  IgA endpoint titer: 0
[2]; [9]
  IgA endpoint titer: 0
[2]; [10]
  IgA endpoint titer: 0
[2]; [11]
  IgA endpoint titer: 0
[2]; [12]
  IgA endpoint titer: 0
[2]; [13]
  IgA endpoint titer: 40
[2]; [14]
  IgA endpoint titer: 40
[2]; [15]
  IgA endpoint titer: 640
[2]; [16]
  IgA endpoint titer: 160
[2]; [17]
  IgA endpoint titer: 640
[2]; [18]
  IgA endpoint titer: 320
[2]; [19]
  IgA endpoint titer: 1280
[2]; [20]
  IgA endpoint titer: 640
[2]; [21]
  IgA endpoint titer: 640
[2]; [22]
  IgA endpoint titer: 640
[2]; [23]
  IgA endpoint titer: 640
[2]; [24]
  IgA endpoint titer: 1280
[3]; [8]
  IgG1 endpoint titer: 0
[3]; [25]
  IgG1 endpoint titer: 0
[3]; [9]
  IgG1 endpoint titer: 320
[3]; [10]
  IgG1 endpoint titer: 320
[3]; [11]
  IgG1 endpoint titer: 2560
[3]; [12]
  IgG1 endpoint titer: 2560
[3]; [13]
  IgG1 endpoint titer: 20480
[3]; [14]
  IgG1 endpoint titer: 20480
[3]; [15]
  IgG1 endpoint titer: 20480
[3]; [16]
  IgG1 endpoint titer: 20480
[3]; [17]
  IgG1 endpoint titer: 20480
[3]; [18]
  IgG1 endpoint titer: 10240
[3]; [19]
  IgG1 endpoint titer: 20480
[3]; [20]
  IgG1 endpoint titer: 10240
[3]; [21]
  IgG1 endpoint titer: 10240
[3]; [22]
  IgG1 endpoint titer: 10240
[3]; [23]
  IgG1 endpoint titer: 40960
[3]; [24]
  IgG1 endpoint titer: 20480
[4]; [8]
  IgG2a endpoint titer: 0
[4]; [25]
  IgG2a endpoint titer: 0
[4]; [9]
  IgG2a endpoint titer: 40
[4]; [10]
  IgG2a endpoint titer: 40
[4]; [11]
  IgG2a endpoint titer: 1280
[4]; [12]
  IgG2a endpoint titer: 1280
[4]; [13]
  IgG2a endpoint titer: 2560
[4]; [14]
  IgG2a endpoint titer: 2560
[4]; [15]
  IgG2a endpoint titer: 10240
[4]; [16]
  IgG2a endpoint titer: 5120
[4]; [17]
  IgG2a endpoint titer: 10240
[4]; [18]
  IgG2a endpoint titer: 5120
[4]; [19]
  IgG2a endpoint titer: 20480
[4]; [20]
  IgG2a endpoint titer: 20480
[4]; [21]
  IgG2a endpoint titer: 10240
[4]; [22]
  IgG2a endpoint titer: 10240
[4]; [23]
  IgG2a endpoint titer: 20480
[4]; [24]
  IgG2a endpoint titer: 20480
[5]; [8]
  IgG2b endpoint titer: 0
[5]; [25]
  IgG2b endpoint titer: 0
[5]; [9]
  IgG2b endpoint titer: 40
[5]; [10]
  IgG2b endpoint titer: 40
[5]; [11]
  IgG2b endpoint titer: 320
[5]; [12]
  IgG2b endpoint titer: 80
[5]; [13]
  IgG2b endpoint titer: 40
[5]; [14]
  IgG2b endpoint titer: 80
[5]; [15]
  IgG2b endpoint titer: 640
[5]; [16]
  IgG2b endpoint titer: 640
[5]; [17]
  IgG2b endpoint titer: 320
[5]; [18]
  IgG2b endpoint titer: 1280
[5]; [19]
  IgG2b endpoint titer: 160
[5]; [20]
  IgG2b endpoint titer: 320
[5]; [21]
  IgG2b endpoint titer: 640
[5]; [22]
  IgG2b endpoint titer: 1280
[5]; [23]
  IgG2b endpoint titer: 640
[5]; [24]
  IgG2b endpoint titer: 1280
[6]
  IgE endpoint titer: 0
[7]
  IgA endpoint titer: 0
